The data set can be described thus: Level of human metastin in plasma by EIA after sustained administration. Conditions: rat, sc, male Copenhagen rats, continuous s.c. administration by osmotic pumps at 6.0 nmol/hr, 7 days after implantation. The format is in vivo. The method, then:
Male Copenhagen rats of 8 weeks old after birth (Charles River Laboratories, US) were anesthetized by giving an intraperitoneal injection of sodium pentobarbital (Nembutal, Dainippon Pharmaceutical Co., Ltd.) in a dose of 50 mg/kg body weight. Then, two ALZET osmotic pumps (Model 2001, volume: 200 μL, rate: 1.0 μL/hr) filled with a 3 mM human metastin solution in distilled water (metastin group) or with distilled water (distilled water group) were implanted subcutaneously in rats at the back (5 rats in each group), whereby human metastin was continuously administered at a rate of 6.0 nmol/hr in the metastin group. For the intraperitoneal administration of sodium pentobarbital, a 1 mL tuberculin syringe and a 26-gauge needle (both by Terumo Co., Ltd.) were used. Following weighing the body weight 7 days after the implantation of the pumps, the animal was sacrificed by decapitation to collect blood. At the same time, the weight of testis was weighed. […] The levels of FSH (follicle-stimulating hormone), LH (luteinizing hormone) and testosterone contained in plasma were determined by radioimmunoassay (Rat Follicle Stimulating Hormone (rFSH) [^125I] Biotrack Assay System with Magnetic Separation, Rat Luteinizing Hormone (rLH) [^125I] Biotrack Assay System with Magnetic Separation, all by Amersham Biosciences, and DPC.Total Testosterone by Diagnostic Products Corporation).

SMILES strings stand for the structures.

Consider `CC[C@H](C)[C@H](NC(=O)[C@H](CCC(N)=O)NC(=O)[C@H](CCCNC(=N)N)NC(=O)[C@H](CO)NC(=O)[C@H](Cc1c[nH]cn1)NC(=O)[C@@H]1CCCN1C(=O)[C@H](C)NC(=O)[C@H](CO)NC(=O)[C@H](CC(C)C)NC(=O)CNC(=O)[C@@H]1CCCN1C(=O)[C@H](CCC(N)=O)NC(=O)[C@H](CCC(N)=O)NC(=O)[C@H](CCCNC(=N)N)NC(=O)[C@H](CO)NC(=O)CNC(=O)[C@H](CO)NC(=O)[C@H](CO)NC(=O)[C@H](CCC(=O)O)NC(=O)[C@@H]1CCCN1C(=O)[C@@H]1CCCN1C(=O)[C@@H]1CCCN1C(=O)[C@H](CO)NC(=O)[C@H](CC(C)C)NC(=O)[C@H](CO)NC(=O)[C@@H](NC(=O)CN)[C@@H](C)O)C(=O)N1CCC[C@H]1C(=O)N[C@@H](C)C(=O)N1CCC[C@H]1C(=O)N[C@@H](CCC(N)=O)C(=O)NCC(=O)N[C@@H](C)C(=O)N[C@H](C(=O)N[C@@H](CC(C)C)C(=O)N[C@H](C(=O)N[C@@H](CCC(N)=O)C(=O)N[C@@H](CCCNC(=N)N)C(=O)N[C@@H](CCC(=O)O)C(=O)N[C@@H](CCCCN)C(=O)N[C@@H](CC(=O)O)C(=O)N[C@@H](CC(C)C)C(=O)N1CCC[C@H]1C(=O)N[C@@H](CC(N)=O)C(=O)N[C@@H](Cc1ccc(O)cc1)C(=O)N[C@@H](CC(N)=O)C(=O)N[C@@H](Cc1c[nH]c2ccccc12)C(=O)N[C@@H](CC(N)=O)C(=O)N[C@@H](CO)C(=O)N[C@@H](Cc1ccccc1)C(=O)NCC(=O)N[C@@H](CC(C)C)C(=O)N[C@@H](CCCNC(=N)N)C(=O)N[C@@H](Cc1ccccc1)C(N)=O)C(C)C)C(C)C` [Human metastin], for which the level at time molar at 168 h is approximately 3.2 nM.

(Values after US7754220B2, “Methods of inhibiting secretion of follicle-stimulating hormone and testosterone” (Takeda Pharmaceutical Company Limited, priority 2003, dated 2010).)
